Each structure is given as a SMILES string.

23 molecules from patent US12421210B2, “Fused bicyclic heterocycles as therapeutic agents” (NEW YORK UNIVERSITY, priority 2018, dated 2025) can be followed below.

The assay deals with human NAMPT enzyme (His-hNAMPT) (Homo sapiens (Human), UniProt P43490). Nature of the assay: NAMPT enzymatic inhibition assay (fluorescence, NADH product). To be noted: [HDB]; read-out: NAMPT IC50 (μM) [HDB]. It is filed as biochemical.
Sequence of human NAMPT enzyme (His-hNAMPT) (P43490 whole entry): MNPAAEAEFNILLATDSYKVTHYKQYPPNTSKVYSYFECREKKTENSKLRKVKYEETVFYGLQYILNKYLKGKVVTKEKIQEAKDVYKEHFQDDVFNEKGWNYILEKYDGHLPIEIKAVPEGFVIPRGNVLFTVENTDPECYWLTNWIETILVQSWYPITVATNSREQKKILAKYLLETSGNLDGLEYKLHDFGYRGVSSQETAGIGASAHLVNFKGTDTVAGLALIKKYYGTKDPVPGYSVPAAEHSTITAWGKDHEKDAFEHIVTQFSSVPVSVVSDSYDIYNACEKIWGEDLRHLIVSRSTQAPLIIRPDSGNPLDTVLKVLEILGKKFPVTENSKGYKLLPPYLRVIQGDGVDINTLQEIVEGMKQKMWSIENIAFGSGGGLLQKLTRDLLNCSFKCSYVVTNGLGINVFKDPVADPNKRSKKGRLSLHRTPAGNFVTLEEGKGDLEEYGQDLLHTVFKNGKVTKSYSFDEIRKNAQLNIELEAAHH
Take `O=C(/C=C/c1cccnc1)NCC[C@@H]1[C@H]2CN(c3cccc(C(F)(F)F)c3)C[C@@H]12` [Example 138, (E)-3-(pyridin-3-yl)-N-(2-((1R,5S,6s)-3-(3-(trifluoromethyl)phenyl)-3-azabicyclo[3.1.0]hexan-6-yl)ethyl)acrylamide]: the IC50 was in the range of 0.01 to 0.49 µM. To `O=C(/C=C/c1cccnc1)NCC[C@@H]1[C@H]2CN(c3ccc(C(F)(F)F)cc3)C[C@@H]12` [Example 139, (E)-3-(pyridin-3-yl)-N-(2-((1R,5S,6s)-3-(4-(trifluoromethyl)phenyl)-3-azabicyclo[3.1.0]hexan-6-yl)ethyl)acrylamide] belongs 0.01 to 0.49 µM; to `O=C(/C=C/c1cccnc1)NCC[C@@H]1[C@H]2CN(c3ccccc3C(F)(F)F)C[C@@H]12` [Example 140, (E)-3-(pyridin-3-yl)-N-(2-((1R,5S,6S)-3-(2-(trifluoromethyl)phenyl)-3-azabicyclo[3.1.0]hexan-6-yl)ethyl)acrylamide], 0.01 to 0.49 µM; to `O=C(/C=C/c1cccnc1)NCC[C@@H]1[C@H]2CN(c3ccc4ccncc4c3)C[C@@H]12` [Example 141, (E)-N-(2-((1R,5S,6s)-3-(isoquinolin-7-yl)-3-azabicyclo[3.1.0]hexan-6-yl)ethyl)-3-(pyridin-3-yl)acrylamide], below 0.01 µM. Regarding `O=C(/C=C/c1cccnc1)NCC[C@@H]1[C@H]2CN(c3ccc4cnccc4c3)C[C@@H]12` [Example 142, (E)-N-(2-((1R,5S,6s)-3-(isoquinolin-6-yl)-3-azabicyclo[3.1.0]hexan-6-yl)ethyl)-3-(pyridin-3-yl)acrylamide], the IC50 is below 0.01 µM.

On to `O=C(/C=C/c1cccnc1)NCC[C@@H]1[C@H]2CN(c3ccnc4ccccc34)C[C@@H]12` [Example 143, (E)-3-(pyridin-3-yl)-N-(2-((1R,5S,6s)-3-(quinolin-4-yl)-3-azabicyclo[3.1.0]hexan-6-yl)ethyl)acrylamide], for which the IC50 is 0.01 to 0.49 µM. Take `O=C(/C=C/c1cccnc1)NCC[C@@H]1[C@H]2CN(c3ccccc3Cl)C[C@@H]12` [Example 144, (E)-N-(2-((1R,5S,6s)-3-(2-chlorphenyl)-3-azabicyclo[3.1.0]hexan-6-yl)ethyl)-3-(pyridin-3-yl)acrylamide]: the IC50 was 0.01 to 0.49 µM. For `O=C(/C=C/c1cccnc1)NCC[C@@H]1[C@H]2CN(c3cccc(Cl)c3)C[C@@H]12` [Example 145, (E)-N-(2-((1R,5S,6s)-3-(3-chlorophenyl)-3-azabicyclo[3.1.0]hexan-6-yl)ethyl)-3-(pyridin-3-yl)acrylamide] the value was 0.01 to 0.49 µM; for `O=C(/C=C/c1cccnc1)NCC[C@@H]1[C@H]2CN(c3ccc(Cl)cc3)C[C@@H]12` [Example 146, (E)-N-(2-((1R,5S,6s)-3-(4-chlorophenyl)-3-azabicyclo[3.1.0]hexan-6-yl)ethyl)-3-(pyridin-3-yl)acrylamide], 0.01 to 0.49 µM. For `O=C(/C=C/c1cccnc1)NCC[C@@H]1[C@H]2CN(c3ccc(Cl)c(Cl)c3)C[C@@H]12` [Example 147, (E)-N-(2-((1R,5S,6s)-3-(3,4-dichlorophenyl)-3-azabicyclo[3.1.0]hexan-6-yl)ethyl)-3-(pyridin-3-yl)acrylamide] the value was below 0.01 µM; for `O=C(/C=C/c1cccnc1)NCC[C@@H]1[C@H]2CN(c3cc(Cl)cc(Cl)c3)C[C@@H]12` [Example 148, (E)-N-(2-((1R,5S,6s)-3-(3,5-dichlorophenyl)-3-azabicyclo[3.1.0]hexan-6-yl)ethyl)-3-(pyridin-3-yl)acrylamide], below 0.01 µM; for `O=C(/C=C/c1cccnc1)NCC[C@@H]1[C@H]2CN(c3cccnc3)C[C@@H]12` [Example 149, (E)-3-(pyridin-3-yl)-N-(2-((1R,5S,6s)-3-(pyridin-3-yl)-3-azabicyclo[3.1.0]hexan-6-yl)ethyl)acrylamide], 0.01 to 0.49 µM. For the molecule `O=C(/C=C/c1cccnc1)NCC[C@@H]1[C@H]2CN(c3cc(Cl)ccc3F)C[C@@H]12` [Example 150, (E)-N-(2-((1R,5S,6s)-3-(5-chloro-2-flurophenyl)-3-azabicyclo[3.1.0]hexan-6-yl)ethyl)-3-(pyridin-3-yl)acrylamide], the IC50 was 0.01 to 0.49 µM. Regarding `CSc1cccc(N2C[C@@H]3[C@@H](CCNC(=O)/C=C/c4cccnc4)[C@@H]3C2)c1` [Example 151, (E)-N-(2-((1R,5S,6s)-3-(3-(methylthio)phenyl)-3-azabicyclo[3.1.0]hexan-6-yl)ethyl)-3-(pyridin-3-yl)acrylamide], the IC50 was below 0.01 µM. To `CS(=O)(=O)c1cccc(N2C[C@@H]3[C@@H](CCNC(=O)/C=C/c4cccnc4)[C@@H]3C2)c1` [Example 152, (E)-N-(2-((1R,5S,6s)-3-(3-(methylsulfonyl)phenyl)-3-azabicyclo[3.1.0]hexan-6-yl)ethyl)-3-(pyridin-3-yl)acrylamide] belongs 0.01 to 0.49 µM; to `O=C(/C=C/c1cccnc1)NCC[C@@H]1[C@H]2CN(c3ccc(F)c(Cl)c3)C[C@@H]12` [Example 153, (E)-N-(2-((1R,5S,6s)-3-(3-chloro-4-fluorophenyl)-3-azabicyclo[3.1.0]hexan-6-yl)ethyl)-3-(pyridin-3-yl)acrylamide], 0.01 to 0.49 µM; to `O=C(/C=C/c1cccnc1)NCC[C@@H]1[C@H]2CN(c3ccncc3)C[C@@H]12` [Example 154, (E)-3-(pyridin-3-yl)-N-(2-((1R,5S,6s)-3-(pyridin-4-yl)-3-azabicyclo[3.1.0]hexan-6-yl)ethyl)acrylamide], 0.01 to 0.49 µM. For the molecule `CC(C)(C)c1cccc(N2C[C@@H]3[C@@H](CCNC(=O)/C=C/c4cccnc4)[C@@H]3C2)c1` [Example 155, (E)-N-(2-((1R,5S,6s)-3-(3-(tert-butyl)phenyl)-3-azabicyclo[3.1.0]hexan-6-yl)ethyl)-3-(pyridin-3-yl)acrylamide], the IC50 is 0.01 to 0.49 µM.

For the molecule `O=C(/C=C/c1cccnc1)NCC[C@@H]1[C@H]2CN(c3ccc4c(c3)C(=O)NC4)C[C@@H]12` [Example 156, (E)-N-(2-((1R,5S,6s)-3-(3-oxoisoindolin-5-yl)-3-azabicyclo[3.1.0]hexan-6-yl)ethyl)-3-(pyridin-3-yl)acrylamide], the IC50 was 0.01 to 0.49 µM. As for `O=C(/C=C/c1cccnc1)NCC[C@@H]1[C@H]2CN(c3ccc4c(c3)CNC4=O)C[C@@H]12` [Example 157, (E)-N-(2-((1R,5S,6s)-3-(1-oxoisoindolin-5-yl)-3-azabicyclo[3.1.0]hexan-6-yl)ethyl)-3-(pyridin-3-yl)acrylamide], the IC50 is below 0.01 µM. To `CC(C)(C)Oc1cccc(N2C[C@@H]3[C@@H](CCNC(=O)/C=C/c4cccnc4)[C@@H]3C2)c1` [Example 158, (E)-N-(2-((1R,5S,6s)-3-(3-(tert-butoxy)phenyl)-3-azabicyclo[3.1.0]hexan-6-yl)ethyl)-3-(pyridin-3-yl)acrylamide] belongs below 0.01 µM; to `O=C(/C=C/c1cccnc1)NCC[C@@H]1[C@H]2CN(c3ccnc(C(F)(F)F)c3)C[C@@H]12` [Example 159, (E)-3-(pyridin-3-yl)-N-(2-((1R,5S,6s)-3-(2-(trifluoromethyl)pyridin-4-yl)-3-azabicyclo[3.1.0]hexan-6-yl)ethyl)acrylamide], below 0.01 µM; to `O=C(/C=C/c1cccnc1)NCC[C@@H]1[C@H]2CN(c3ccnc(Cl)c3)C[C@@H]12` [Example 160, (E)-N-(2-((1R,5S,6s)-3-(2-chloropyridin-4-yl)-3-azabicyclo[3.1.0]hexan-6-yl)ethyl)-3-(pyridin-3-yl)acrylamide], below 0.01 µM.

As a reminder, the IC50 is the concentration at which inhibition is half-maximal.
